Legend:
[1] = test system: TNF-α in plasma; assay: TNF-α in plasma of adjuvant arthritis rats (ELISA); format: in vivo, rat; settings: day 21 post-adjuvant
Protocol: TNF-α and IL-1β in plasma were measured in a double-point method using the TNF-α ELISA kit (Lbis® TNF-α-rat) and the IL-1β ELISA kit (Quantikine® Rat IL-1β/IL-1F2).
On day 21 post-adjuvant, the animals were subjected to autopsy, and plasma was prepared to measure IL-1β and TIN-α concentrations in plasma. In all the groups for which measurements were made, the concentration of TNF-α was below the detection limit (8 pg/mL).

[2] = test system: monoclonal antibody cocktail-induced arthritis; assay: Mice monoclonal antibody cocktail-induced arthritis model; format: in vivo, Mice (BALB/c Cr Slc)
Protocol: 1-1 Mice (BALB/c Cr Slc (SPF)) were used to examine arthritis suppressing effects of peptides of the present invention on monoclonal antibody cocktail-induced arthritis. Mice were fed normal chow and allowed to acclimate for 6 days before used in experiments.
Arthritis was caused by intravenous administration of 2 mg/animal of an arthritis-inducing monoclonal antibody cocktail and three days later, intraperitoneal administration of 50 μg/animal of lipopolysaccharide (LPS). Peptides R1 and R9 each were intraperitoneally administered at a dose of 10 mg/kg once a day from the day following the LPS administration (day 4) to day 14. Peptide SP4 and the variant of peptide SP4 composed of the corresponding D-amino acids (except for glycine) each were intraperitoneally administered at a dose of 10 or 100 mg/kg once a day from the day following the LPS administration (day 4) to day 14. […] A control group was given physiological saline at 10 mL/kg once a day from day 4.
To forty 7-week-old mice, the arthritis-inducing monoclonal antibody cocktail was intravenously administered at a dose of 2 mg/animal on day 0, and LPS was intraperitoneally administered at a dose of 50 μg/animal on day 3.
[…] As a control, physiological saline was intraperitoneally administered once a day from day 4, and the volume of administration was 10 ml/kg. […] Needles ([…]; Terumo) and syringes (1.0-ml capacity; Terumo) were used for administration.
Observation of clinical score was performed on even days from day 0 to day 14 as follows. The total score for the extremities was set to a maximum of 12. Visual observation of swelling of the legs was performed.
0: normal joint 1: slight inflammation and redness 2: serious erythema and swelling over the whole limb and preventing the use of the limb 3: deformation of the limb or joint accompanied by ankylosis, joint stiffness, loss of function
Results of examinations are expressed by mean value±standard error and were analyzed using EXSAS (Version 7.1.6, Arm Systex Co., Ltd.). Clinical scores were subjected to Wilcoxon's test. Quantitative data, such as body weights and leg volumes, were subjected to Bartlett's test, followed by Dunnett's multiple comparison test if the variance was uniform or by Steel's multiple comparison test if the variance was not uniform. The level of significance was set at 5% on both sides.

[3] = day 6, 0.15 mg/kg intraperitoneal once a day from day 4
[4] = day 14, 0.15 mg/kg intraperitoneal once a day from day 4

Question: For CN(Cc1cnc2nc(N)nc(N)c2n1)c1ccc(C(=O)N[C@@H](CCC(=O)O)C(=O)O)cc1 [Methotrexate], which “Concentrations of TNF-α in plasma” value ([1]; 0.15 mg/kg oral from day 10) is on record?
Answer: N.D (N.D.: below detection limit)

Question: What about the “Concentrations of TNF-α in plasma” value ([1]; 0.15 mg/kg oral, pre-administered group) of the same compound?
Answer: N.D (N.D.: below detection limit)

Question: What about the hind-limb volume ([2]; day 0, 0.15 mg/kg intraperitoneal group) of the same compound?
Answer: 0.216 cm^3

Question: What about the hind-limb volume [2, 3] of the same compound?
Answer: 0.381 cm^3

Question: What about the “increasing rate of hind-limb volume (volume on day 0 = 100%)” value (“increasing rate … (volume on day 0 = 100%)” for short) [2, 3] of the same compound?
Answer: 176.2%

Question: And the hind-limb volume ([2]; day 8 (highest value), 0.15 mg/kg intraperitoneal once a day from day 4)?
Answer: 0.441 cm^3

Question: What about the “increasing rate … (volume on day 0 = 100%)” value ([2]; day 8 (highest), 0.15 mg/kg intraperitoneal once a day from day 4) of the same compound?
Answer: 204.2%

Question: And the clinical score ([2]; day 12, 0.15 mg/kg intraperitoneal once a day from day 4)?
Answer: 8.2±0.9

Question: What about the clinical score [2, 4] of the same compound?
Answer: 8.6±0.9

Question: And the hind-limb volume [2, 4]?
Answer: 0.356 cm^3

Question: And the “increasing rate … (volume on day 0 = 100%)” value [2, 4]?
Answer: 165.4%
